“Also recorded” adds a separate entry of the source.
Tests used:
Type in all cases: cell-based
[1] = system: neonatal rat cardiomyocytes; experiment: 45Ca uptake by cultured cardiomyocytes exposed to hydrogen peroxide (free radical attack), on-line isotopic technique
Procedure: Protamine is a strong polycationic polypeptide used extensively for heparin reversal after cardiopulmonary bypass. The drug is known to be negatively inotropic. The neonatal rat cardiomyocytes were cultured according to the procedure described by Frank et al.(13).
Ca fluxes were measured by an on-line isotopic technique (13). The myocytes were cultured onto scintillant-containing discs which were mounted in a flow cell so that the cells were in direct contact with perfusate. The flow cell was placed between two opposing […] tubes. Cell-associated Ca was then recorded in counts per minute. ^45 Ca^2+ is a low energy beta-emitter. The radioactivity contained within the perfusate is counted with very low efficiency (<5%) whereas that within the cells is counted with an efficiency of 39%. In all of the examples the cells were initially perfused with non isotopic solution to remove any debris. Perfusion with ^45 Ca^2+ containing solution was then commenced at 10 ml/minute and continued until the cells were labelled to asymptote. […] The flow cell was then drained and refilled with a solution containing hydrogen peroxide. The cells were then incubated for 60 minutes with continuous recording of ^45 Ca labeling (no flow) prior to washout with non-isotopic perfusate.
After asymptotic labeling with ^45 Ca, the cells were perfused with a solution containing protamine sulfate at varying concentrations. […] The flow cell was then drained and refilled with a solution containing 50 μM H2 O2 and protamine. The procedure was repeated with protamine in varying concentrations: 1 μM (n=4); 5 μM (n=6) and 50 μM (n=6).
(§1) At the end of each experiment the discs were removed from the flow cell, allowed to dry and the cells were scraped onto a pre-weighed piece of filter paper. This was placed in an oven (>100° C.) overnight and then weighed, permitting determination of the cellular dry weight. The specific activity of each isotopic solution was measured in a […] (Beckman Instruments) and cell-associated Ca was expressed in mmoles/kg dry cellular weight. The cell cultures were maintained at 37° C.

[2] = system: neonatal rat cardiomyocytes; experiment: 45Ca uptake by metabolically inhibited cardiomyocytes (iodoacetic acid + 2-deoxyglucose); conditions: for inhibition of calcium uptake: iodoacetic acid and 2-deoxyglucose
Procedure: Ca fluxes were measured by an on-line isotopic technique (13). The myocytes were cultured onto scintillant-containing discs which were mounted in a flow cell so that the cells were in direct contact with perfusate. The flow cell was placed between two opposing […] tubes. Cell-associated Ca was then recorded in counts per minute. ^45 Ca^2+ is a low energy beta-emitter. The radioactivity contained within the perfusate is counted with very low efficiency (<5%) whereas that within the cells is counted with an efficiency of 39%. In all of the examples the cells were initially perfused with non isotopic solution to remove any debris. Perfusion with ^45 Ca^2+ containing solution was then commenced at 10 ml/minute and continued until the cells were labelled to asymptote. This normally took 25-30 minutes. The flow cell was then drained and refilled with a solution containing hydrogen peroxide. The cells were then incubated for 60 minutes with continuous recording of ^45 Ca labeling (no flow) prior to washout with non-isotopic perfusate.
as §1
Exposure of neonatal rat cardiomycytes to 0.05 mM iodoacetic acid (IAA), as a glycolytic inhibitor, and 0.5 mM 2-deoxyglucose (2-DOG), as a non-metabolizable substrate, produces a graded depletion in intracellular ATP and induces a significant Ca leak. In the following example involving metabolic inhibition, these two compounds were included in the incubation medium. 2-DOG was added directly and IAA was added from a 1 M stock solution, dissolved in water. The concentration in the culture media was 0.5 mM for 2-DOG and 0.05 mM for IAA.

mammalian cells = experiment: calcium uptake inhibition in cell culture, noxious stimulus not specified
[3] = calcium leak caused by hydrogen peroxide
[4] = calcium leak caused by metabolic inhibition

In the case of hexamedronium bromide [Polybrene], the “inhibition of calcium leak” value [1, 3] was “inhibited the calcium leak”, the “threshold concentration above which inhibition was significant” value [1, 3] was 25 µM and the “effect on calcium uptake” value ([1]; polybrene 25 μM, free radical attack (FIG. 4)) was “prevention of calcium uptake”. For the same compound, the “inhibition of calcium leak” value [2, 4] was “inhibited the calcium leak”, the “threshold concentration above which inhibition was significant” value [2, 4] was 25 µM and the “effect on calcium uptake” value ([2]; polybrene 25 μM, metabolically inhibited cells (FIG. 5)) was “prevention of calcium uptake”.

For `CCCCCCCCCCCC[N+](C)(C)C.[Br-]` [DDTMA, dodecyltrimethylammonium bromide], the “inhibition of calcium uptake” value ([2]; 50 μM) was “significant inhibition of calcium uptake”.

polymyxin B sulfate [PXB] was tested, and the “inhibition of calcium uptake” value ([2]; 100 μM) was “substantially inhibited”.

With protamine the “effect on Ca overload” value ([1]; protamine 1 μM, 50 μM H2O2, 60 min incubation) was “no effect”, the “effect on Ca overload / calcium uptake” value ([1]; protamine 5 μM, 50 μM H2O2, 60 min incubation) was “prevention of calcium uptake; also recorded: completely prevented the Ca overload” and the “effect on Ca overload” value ([1]; protamine concentration above 5 μM (50 μM tested), 50 μM H2O2) was “no additional effect”. For the same compound, the “effect of protamine on Ca overload after neutralizing its positive charge with heparin” value ([1]; protamine plus heparin, H2O2) was “completely inhibited”, the “Ca uptake on perfusion with the agent alone” value ([1]; protamine sulfate at varying concentrations, after asymptotic 45Ca labeling, before H2O2) was “did not significantly alter Ca uptake” and the “effect on calcium overload” value (mammalian cells; cell culture concentrations of 5 μM and above) was “completely prevent calcium overload”. For the same compound, the “effect on calcium uptake” value ([2]; concentrations below 5 μM, 0.05 mM IAA + 0.5 mM 2-DOG) was “did not exert a significant effect” and the “effect on calcium uptake” value ([2]; concentrations of 5 μM and higher, 0.05 mM IAA + 0.5 mM 2-DOG) was “prevention of calcium uptake; also recorded: dramatic drop in calcium uptake”.

In the case of Gentamicin, the “amount required to obtain any significant level of calcium uptake inhibition” value (mammalian cells) was 1.5 mM.

— patent publication US5459126A, “Method for decreasing calcium uptake by cells using selected polycations” (California Institute of Technology, priority 1993, dated 1995)
